Results reported in patent US20230125698A1, “APHERESIS COLUMN FOR TREATING RHEUMATOID ARTHRITIS” (UNIVERSITÉ PAUL SABATIER TOULOUSE III, priority 2020, published 2023).
Non-standard residues stand in square brackets, D forms with d. No end group written: not given here. Cit = NC(=O)NCCC[C@H](N)C(=O)O

Columns and labels:
[1] = test system: anti-citrullinated peptide/protein antibodies (ACPA) in serums from AhFibA-positive rheumatoid arthritis patients; experiment: ELISA reactivity of rheumatoid arthritis patient serums with respect to the citrullinated peptides; assay type: binding, human; design: key to Reactivity profile of serum with respect to the peptide: +++: strong positive; ++: medium positive; +: weak positive; empty box: negative; conditions: for Correlation between the reactivities of the serums with respect to the different peptides (Spearman): 202 serums, peptide pairs compared; for Reactivity profile of serum with respect to the peptide: ELISA
Protocol: Serum samples were obtained from 202 rheumatoid arthritis patients positive for the “AhFibA” ELISA test, which allows to detect and titer the ACPA using the citrullinated human fibrinogen as an immunosorbent.
The antigens or immunosorbents (citrullinated fibrinogen or citrullinated and non-citrullinated peptides), solubilised in PBS (1.5 mM KH2PO4 SIGMA 795488; 7 mM K2HPO4 SIGMA P3786; 0.15M NaCl SIGMA 31434; pH 7.2) at concentrations of 5 and 10 μg/mL, are adsorbed in the microtiter plate wells (MAXISORP NUNC 2023-09) by incubation overnight at 4° C., or used in avidin-biotin system: avidin 5 μg/mL in PBS incubated overnight at 4° C. and then, after washing, biotinylated peptide at 10 μg/mL in PBS, incubated 1 h at 4° C. After blocking in PBS 2% BSA (Sigma A3059) for 1 hour at 4° C. and washing in PBS 0.1% Tween®20 (SIGMA P1379), the samples to be tested are deposited diluted 1:50 (1:100 in the Avidin-Biotin system) or at equivalent corrected dilutions, in PBS 2% BSA 2MNaCl. After washing, the secondary antibody (goat anti-human IgG Fc fragment coupled to horseradish peroxidase; Southern Biotech 2040-05) is incubated for 1 hour at 4° C. After washing, the revelation is performed with a solution of Ortho-Phenylene Diamine dihydrochloride (Sigma P2788), 0.03% H2O2 (Sigma H1009), in citrate/H3PO4 buffer pH5 (0.05 M citric acid Sigma C0759; 0.1 M Na2HPO4 Prolabo 28026292) for 5 minutes at room temperature, and then stopped with a solution of H2SO4 6N (Sigma 07208). The optical density (OD) is read at 492 nm with a Multiskan Fc plate reader (ThermoScientific).
Expression of the results of the ELISA tests: for the peptides, the variation in OD between the reactivity of the citrullinated peptide and the reactivity of the non-citrullinated peptide is taken into account, each reactivity being previously subtracted from its blank (OD in the absence of sample). This gives the following formula:
ΔDO=(DOcit−DOblank cit)−(DOnoncit−DOblank noncit) [Math 1]
The ΔDO for the peptides and the OD for the citrullinated fibrinogen are considered to express the titer of the samples tested.
The inter-assay variations are corrected for by using a range of dilutions of a pool of patient serums tested in each microtiter plate. This reference pool, named P97, was made up of 97 samples of the same volume from 97 patients with a high ACPA titer. The OD values of this internal range are compared to that of reference values where each point in the range is the average of 30 determinations previously performed from this same pool. The least squares method then allows to obtain a correction factor which is applied to all the OD values obtained on the corresponding plate. This corrected OD corresponds to the titer of the sample.
The reactivity profiles of the 202 samples of patient serums with respect to the citrullinated fibrinogen and the 4 citrullinated peptides were determined by ELISA in at least two independent assays, each being done in duplicate. For the sake of reproducibility, only the microtiter plates whose internal range required the application of a correction factor between 0.5 and 2 with respect to the reference range were considered.

[2] = test system: anti-citrullinated peptide/protein antibodies (ACPA) in serums from AhFibA-positive rheumatoid arthritis patients; experiment: as above; assay type: binding, human; conditions: β60-74Cit-NH2 and/or Ac-α36-50Cit
[3] = serum n°1, ACPA-positive RA patient serum
[4] = serum n°6, ACPA-positive RA patient serum
[5] = serum n°10, ACPA-positive RA patient serum
[6] = serum n°16, ACPA-positive RA patient serum
[7] = serum n°17, ACPA-positive RA patient serum
[8] = serum n°22, ACPA-positive RA patient serum
[9] = serum n°25, ACPA-positive RA patient serum
[10] = serum n°29, ACPA-positive RA patient serum
[11] = serum n°41, ACPA-positive RA patient serum
[12] = serum n°64, ACPA-positive RA patient serum

## GPX1VVEX2HQSACKDS (Ac-GP[Cit]VVE[Cit]HQSACKDS) [Ac-α36-50Cit, N-terminal G acetylated; X1 and X2 citrullyl residues; fibrinogen α-chain 36-50]
[1]
  Correlation between the reactivities of the serums with respect to the different peptides (Spearman): no correlation was found
[1]; [3]
  Reactivity profile of serum with respect to the peptide: [empty]
[1]; [4]
  Reactivity profile of serum with respect to the peptide: [empty]
[1]; [5]
  Reactivity profile of serum with respect to the peptide: [empty]
[1]; [6]
  Reactivity profile of serum with respect to the peptide: +
[1]; [7]
  Reactivity profile of serum with respect to the peptide: +
[1]; [8]
  Reactivity profile of serum with respect to the peptide: [empty]
[1]; [9]
  Reactivity profile of serum with respect to the peptide: +++
[1]; [10]
  Reactivity profile of serum with respect to the peptide: +
[1]; [11]
  Reactivity profile of serum with respect to the peptide: +++
[1]; [12]
  Reactivity profile of serum with respect to the peptide: +++
[2]
  Reactivity of the plasmas tested to the peptide: most of the plasmas tested were reactive

## VDIDIKIX1SCX2GSCS (VDIDIKI[Cit]SC[Cit]GSCS; cysteine pairing not given here) [α171-185Cit, X1 and X2 citrullyl residues; fibrinogen α-chain 171-185]
[1]
  Correlation between the reactivities of the serums with respect to the different peptides (Spearman): significant correlations
[1]; [3]
  Reactivity profile of serum with respect to the peptide: +
[1]; [4]
  Reactivity profile of serum with respect to the peptide: +
[1]; [5]
  Reactivity profile of serum with respect to the peptide: +
[1]; [6]
  Reactivity profile of serum with respect to the peptide: ++
[1]; [7]
  Reactivity profile of serum with respect to the peptide: +++
[1]; [8]
  Reactivity profile of serum with respect to the peptide: +++
[1]; [9]
  Reactivity profile of serum with respect to the peptide: [empty]
[1]; [10]
  Reactivity profile of serum with respect to the peptide: [empty]
[1]; [11]
  Reactivity profile of serum with respect to the peptide: ++
[1]; [12]
  Reactivity profile of serum with respect to the peptide: [empty]

## X1GHAKSX2PVX3GIHTS ([Cit]GHAKS[Cit]PV[Cit]GIHTS) [α621-635Cit, X1, X2 and X3 citrullyl residues; fibrinogen α-chain 621-635]
[1]
  Correlation between the reactivities of the serums with respect to the different peptides (Spearman): significant correlations
[1]; [3]
  Reactivity profile of serum with respect to the peptide: +
[1]; [4]
  Reactivity profile of serum with respect to the peptide: +++
[1]; [5]
  Reactivity profile of serum with respect to the peptide: [empty]
[1]; [6]
  Reactivity profile of serum with respect to the peptide: +++
[1]; [7]
  Reactivity profile of serum with respect to the peptide: +++
[1]; [8]
  Reactivity profile of serum with respect to the peptide: ++
[1]; [9]
  Reactivity profile of serum with respect to the peptide: +
[1]; [10]
  Reactivity profile of serum with respect to the peptide: +++
[1]; [11]
  Reactivity profile of serum with respect to the peptide: [empty]
[1]; [12]
  Reactivity profile of serum with respect to the peptide: [empty]

## X1PAPPPISGGGYX2AX3 ([Cit]PAPPPISGGGY[Cit]A[Cit]-NH2; N-terminus assumed; SMILES CC[C@H](C)[C@H](NC(=O)[C@@H]1CCCN1C(=O)[C@@H]1CCCN1C(=O)[C@@H]1CCCN1C(=O)[C@H](C)NC(=O)[C@@H]1CCCN1C(=O)[C@@H](N)CCCNC(N)=O)C(=O)N[C@@H](CO)C(=O)NCC(=O)NCC(=O)NCC(=O)N[C@@H](Cc1ccc(O)cc1)C(=O)N[C@@H](CCCNC(N)=O)C(=O)N[C@@H](C)C(=O)N[C@@H](CCCNC(N)=O)C(N)=O) [β60-74Cit-NH2, X1, X2 citrullyl; X3 citrullyl derivative with carboxamide in place of terminal carboxyl; fibrinogen β-chain 60-74]
[1]; 202 serums from AhFibA-positive RA patients
  Percentage of RA serums positive (reactive in ELISA) for the peptide: 76%
[1]
  Correlation between the reactivities of the serums with respect to the different peptides (Spearman): significant correlations
[1]; [3]
  Reactivity profile of serum with respect to the peptide: +++
[1]; [4]
  Reactivity profile of serum with respect to the peptide: +++
[1]; [5]
  Reactivity profile of serum with respect to the peptide: +++
[1]; [6]
  Reactivity profile of serum with respect to the peptide: [empty]
[1]; [7]
  Reactivity profile of serum with respect to the peptide: +++
[1]; [8]
  Reactivity profile of serum with respect to the peptide: ++
[1]; [9]
  Reactivity profile of serum with respect to the peptide: ++
[1]; [10]
  Reactivity profile of serum with respect to the peptide: [empty]
[1]; [11]
  Reactivity profile of serum with respect to the peptide: [empty]
[1]; [12]
  Reactivity profile of serum with respect to the peptide: +++
[2]
  Reactivity of the plasmas tested to the peptide: most of the plasmas tested were reactive
